Reference: ChEMBL document CHEMBL1151698, “Inhibition of aldose reductase from cataracted eye lenses by finger millet (Eleusine coracana) polyphenols” (Bioorg Med Chem, 2008)
Converted amounts (≈) assume the structure as drawn.

Experiments:
[1] = target: Aldo-keto reductase family 1 member B1 (Homo sapiens, UniProt P15121); experiment: Inhibition of cataracted human eye lens aldose reductase
[2] = system: Radical scavenging activity; experiment: Antioxidant activity assessed as DPPH radical scavenging activity after 20 mins; type: functional

SMILES	IC50 [1] [µM]	IC50 [2] [µg/mL]
O=C(O)/C=C/c1ccccc1 [CINNAMIC ACID]	460	96.7 (≈ 653 µM)
O=C(O)/C=C/c1ccc(O)cc1 [COUMARIC ACID]	989	112.01 (≈ 682 µM)
COc1cc(/C=C/C(=O)O)ccc1O [FERULATE]	–	189.1 (≈ 974 µM)
O=C(O)c1cc(O)c(O)c(O)c1 [GALLIC ACID]	572	26.9 (≈ 158 µM)
O=C(O)c1ccc(O)cc1 [PARABEN]	–	183.7 (≈ 1330 µM)
O=C(O)c1ccc(O)c(O)c1 [PROTOCATECHUIC ACID]	277	77.63 (≈ 504 µM)
O=c1c(O)c(-c2ccc(O)c(O)c2)oc2cc(O)cc(O)c12 [QUERCETIN]	–	56.8 (≈ 188 µM)
COc1cc(C(=O)O)cc(OC)c1O [SYRINGIC ACID]	868	155.6 (≈ 785 µM)
COc1cc(C(=O)O)ccc1O [VANILLIC ACID]	–	176.5 (≈ 1050 µM)
